Results: PubChem BioAssay (NCI)
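Following 48 hours of exposure in 96-well plates, responses at five concentrations were used to interpolate endpoints linearly. The concentration for full growth arrest is given as TGI.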

Tests used:
Experiment in all cases: inhibition of tumour cell growth, NCI panel, 48 h
[1] = system: HCC-2998 colon
[2] = system: UO-31 renal
[3] = system: UACC-257 melanoma
[4] = system: SF-268 CNS
[5] = system: TK-10 renal
[6] = system: HT29 colon
[7] = system: A498 renal
[8] = system: SK-MEL-5 melanoma
[9] = system: SK-MEL-28 melanoma
[10] = system: OVCAR-8 ovarian
[11] = system: SK-MEL-2 melanoma
[12] = system: KM12 colon
[13] = system: UACC-62 melanoma
[14] = system: SNB-19 CNS
[15] = system: MALME-3M melanoma
[16] = system: RPMI-8226 leukemia
[17] = system: NCI-H460 lung
[18] = system: MDA-MB-231 breast
[19] = system: SNB-75 CNS
[20] = system: SK-OV-3 ovarian
[21] = system: CAKI-1 renal
[22] = system: HOP-92 NSCLC
[23] = system: PC-3 prostate
[24] = system: SF-295 CNS
[25] = system: EKVX NSCLC
[26] = system: MOLT-4 leukemia
[27] = system: HCT-15 colon
[28] = system: RXF 393 renal
[29] = system: U251 CNS
[30] = system: T-47D breast
[31] = system: M14 melanoma
[32] = system: ACHN renal
[33] = system: MCF7 breast
[34] = system: OVCAR-5 ovarian
[35] = system: MDA-N
[36] = system: DU-145 prostate
[37] = system: HOP-62 NSCLC
[38] = system: NCI-H522 lung
[39] = system: K-562 leukemia
[40] = system: IGROV1 ovarian
[41] = system: HS 578T breast
[42] = system: BT-549 breast
[43] = system: 786-0 renal
[44] = system: NCI-H23 lung
[45] = system: LOX IMVI melanoma
[46] = system: HL-60(TB) leukemia
[47] = system: SF-539 CNS
[48] = system: OVCAR-3 ovarian
[49] = system: A549 NSCLC
[50] = system: SR leukemia
[51] = system: CCRF-CEM leukemia
[52] = system: HCT-116 colon
[53] = system: MDA-MB-435
[54] = system: NCI/ADR-RES ovarian
[55] = system: SW-620 colon

Q: With `COc1ccc(Nc2nc3cc(C(F)(F)F)ccc3n3cccc23)cc1OC` as the compound, how does the TGI [1] read?
A: 27.3 µM

Q: And the TGI [2]?
A: 63.4 µM

Q: What about the TGI [3] of the same compound?
A: 34.8 µM

Q: What about the TGI [4] of the same compound?
A: > 100 µM

Q: And the TGI [5]?
A: 49 µM

Q: What about the TGI [6] of the same compound?
A: 24.1 µM

Q: And the TGI [7]?
A: 32.6 µM

Q: And the TGI [8]?
A: 27.6 µM

Q: And the TGI [9]?
A: > 100 µM

Q: And the TGI [10]?
A: 87.8 µM

Q: What about the TGI [11] of the same compound?
A: 30.9 µM

Q: And the TGI [12]?
A: 34 µM

Q: What about the TGI [13] of the same compound?
A: 28.9 µM

Q: What about the TGI [14] of the same compound?
A: 60.9 µM

Q: What about the TGI [15] of the same compound?
A: 54.4 µM

Q: And the TGI [16]?
A: 55.1 µM

Q: And the TGI [17]?
A: 28.7 µM

Q: What about the TGI [18] of the same compound?
A: 36.5 µM

Q: What about the TGI [19] of the same compound?
A: 39.5 µM

Q: And the TGI [20]?
A: 92.1 µM

Q: And the TGI [21]?
A: > 100 µM

Q: What about the TGI [22] of the same compound?
A: 47.5 µM

Q: What about the TGI [23] of the same compound?
A: 26.8 µM

Q: And the TGI [24]?
A: 30.1 µM

Q: What about the TGI [25] of the same compound?
A: 58.5 µM

Q: What about the TGI [26] of the same compound?
A: 37.8 µM

Q: What about the TGI [27] of the same compound?
A: 56.1 µM

Q: And the TGI [28]?
A: 29 µM

Q: And the TGI [29]?
A: 28.6 µM

Q: What about the TGI [30] of the same compound?
A: 34.9 µM

Q: And the TGI [31]?
A: 31.3 µM

Q: What about the TGI [32] of the same compound?
A: 74.3 µM

Q: And the TGI [33]?
A: 51.5 µM

Q: What about the TGI [34] of the same compound?
A: 58 µM

Q: And the TGI [35]?
A: 29.3 µM

Q: What about the TGI [36] of the same compound?
A: 52.6 µM

Q: What about the TGI [37] of the same compound?
A: 48.7 µM

Q: What about the TGI [38] of the same compound?
A: 41.5 µM

Q: And the TGI [39]?
A: 52.6 µM

Q: And the TGI [40]?
A: > 100 µM

Q: And the TGI [41]?
A: > 100 µM

Q: And the TGI [42]?
A: 56.1 µM

Q: What about the TGI [43] of the same compound?
A: 24.7 µM

Q: What about the TGI [44] of the same compound?
A: 43.2 µM

Q: And the TGI [45]?
A: 15.8 µM

Q: What about the TGI [46] of the same compound?
A: 67 µM

Q: And the TGI [47]?
A: 34 µM

Q: And the TGI [48]?
A: 54 µM

Q: And the TGI [49]?
A: 50.8 µM

Q: And the TGI [50]?
A: 34.9 µM

Q: And the TGI [51]?
A: > 100 µM

Q: What about the TGI [52] of the same compound?
A: 27.4 µM

Q: What about the TGI [53] of the same compound?
A: 36.3 µM

Q: And the TGI [54]?
A: 50.1 µM

Q: What about the TGI [55] of the same compound?
A: > 100 µM
